Where two headings read alike, the source gives them in different places.
Experiment: Plasma pharmacokinetics, Parkinson's disease patients, once daily for 14 days
Assay type: in vivo, human
Settings: human, PD patients; for AUC(0-t): read-out: AUC0-24 Mean
Excerpt: Of these, 44 subjects completed the study. An additional 10 subjects were enrolled in the open label part of the study, of these, one subject was discontinued due to an AE of vomiting.
Safety population was comprised of 48 subjects (not including those in the open label cohorts) and PK population was comprised of 36 subjects from double blind part and 10 subjects from open label part of the study. No subjects were discontinued from the study due to protocol deviation.
The PK analysis was performed on the PK population and safety analysis was performed on this population as per the protocol described before.
Study NCT02970019 was a multi-center safety and tolerability study of vodobatinib in 60 subjects with Parkinson's Disease (diagnosed with PD according to the Brain Bank criteria of the United Kingdom Parkinson's Disease Society) who were randomized to receive placebo or various daily doses of vodobatinib for 14 days in a parallel assignment design with quadruple masking (participant, care provider, investigator, and outcomes assessor.) In study NCT02970019, consecutive cohorts of up to eight subjects received once-daily doses of 6, 12, 18, 24, 48, 96, 192, or 384 mg of study drug for 14 days, with six subjects in each cohort on vodobatinib and two subjects in each cohort on placebo. An alternating panel design was used such that subjects in the 6 and 18 mg cohorts were the same, and subjects in the 12 and 24 mg cohorts were the same, thus yielding 48 total individuals enrolled in the eight cohorts. There was a wash-out period of 14 days between each were studied in sequential ascending dose cohorts. In parallel to the double-blind cohorts, up to four subjects per dose cohort were enrolled in an open-label study of vodobatinib to receive 24, 48 or 96 mg once-daily doses of for 14 days. These subjects underwent lumbar puncture to collect CSF on Day 1, and 2-3 h after the last morning dose on Day 14. PK blood draws (for both double-blind and open label) were collected at pre-dose (˜30 min) and at 0.5, 1, 2, 4, 8, 12 and 24 h post-dose on Days 1 and 14.
Vodobatinib levels in plasma and CSF were determined using a fully validated LC-MS/MS assay with lower limits of quantitation (LLOQ) of 2.5 ng/mL and 0.05 ng/mL, respectively. PK analyses were performed using standard non-compartmental analysis with Phoenix® WinNonlin® software Version 6.4 to estimate the PK parameters Cmax, Tmax, AUCtau and Css. Descriptive statistics were used to characterize vodobatinib concentrations and PK parameters in plasma and CSF. Statistical calculations were performed with SAS software (Version 9.4, SAS Institute, Cary, North Carolina, USA).

Compound `Cc1ccc(C(=O)NNC(=O)c2c(C)cccc2Cl)cc1C#Cc1cnc2ccccc2c1` [N′-(2-chloro-6-methylbenzoyl)-4-methyl-3-[2-(3-quinolyl)ethynyl]-benzohydrazide] has an AUC (96 mg, read-out: AUC Over Dosing Interval Median) of 13900 ng·h/mL, an AUC (96 mg, read-out: AUC Over Dosing Interval Min, Max) of 6870 to 38700 ng·h/mL and a half-life (96 mg, read-out: Half-Life Lambda Z Geo. Mean (converted)) of 13.2 h. It also gave a half-life (96 mg, read-out: Half-Life Lambda Z Mean (converted)) of 15.7 h, a half-life (96 mg, read-out: Half-Life Lambda Z Median (converted)) of 15.5 h and a half-life (96 mg, read-out: Half-Life Lambda Z Min, Max (converted)) of 5.7 to 26.1 h. It also gave an AUC (192 mg, read-out: AUC Over Dosing Interval Geo. Mean) of 27600 ng·h/mL, an AUC (192 mg, read-out: AUC Over Dosing Interval Mean) of 33800 ng·h/mL and an AUC (192 mg, read-out: AUC Over Dosing Interval Median) of 24800 ng·h/mL. The AUC (192 mg, read-out: AUC Over Dosing Interval Min, Max) was 13800 to 82700 ng·h/mL, the AUC(0-t) (384 mg, Day 14, plasma) was 43800 ng·h/mL and the AUC (384 mg, read-out: AUC Over Dosing Interval Geo. Mean) was 40400 ng·h/mL. It also gave an AUC (384 mg, read-out: AUC Over Dosing Interval Mean) of 43800 ng·h/mL, an AUC (384 mg, read-out: AUC Over Dosing Interval Median) of 44500 ng·h/mL and an AUC (384 mg, read-out: AUC Over Dosing Interval Min, Max) of 18600 to 66700 ng·h/mL. For the same compound, the Cmax (oral, 6 mg, Day 1, plasma) was 164 ng/mL, the AUC(0-t) (oral, 6 mg, Day 1, plasma) was 794 ng·h/mL and the Tmax (oral, 6 mg, Day 1, plasma, read-out: Tmax median) was 2 h. For the same compound, the Cmax (oral, 6 mg, Day 14, plasma) was 182 ng/mL, the Tmax (oral, 6 mg, Day 14, plasma, read-out: Tmax median (range)) was 2 h and the Cmax (oral, 12 mg, Day 1, plasma) was 255 ng/mL. For the same compound, the AUC(0-t) (oral, 12 mg, Day 1, plasma) was 2040 ng·h/mL, the Tmax (oral, 12 mg, Day 1, plasma, read-out: Tmax median) was 2 h and the Cmax (oral, 12 mg, Day 14, plasma) was 301 ng/mL. For the same compound, the AUC(0-t) (oral, 12 mg, Day 14, plasma) was 3250 ng·h/mL, the Tmax (oral, 12 mg, Day 14, plasma, read-out: Tmax median (range)) was 2 h and the Cmax (oral, 18 mg, Day 1, plasma) was 410 ng/mL. For the same compound, the AUC(0-t) (oral, 18 mg, Day 1, plasma) was 2730 ng·h/mL, the Tmax (oral, 18 mg, Day 1, plasma, read-out: Tmax median) was 2 h and the Cmax (oral, 18 mg, Day 14, plasma) was 309 ng/mL. The AUC(0-t) (oral, 18 mg, Day 14, plasma) was 3370 ng·h/mL, the Tmax (oral, 18 mg, Day 14, plasma, read-out: Tmax median (range)) was 3 h and the Cmax (oral, 24 mg, Day 1, plasma) was 385 ng/mL. For the same compound, the AUC(0-t) (oral, 24 mg, Day 1, plasma) was 2690 ng·h/mL, the Tmax (oral, 24 mg, Day 1, plasma, read-out: Tmax median) was 4 h and the Cmax (oral, 24 mg, Day 14, plasma) was 715 ng/mL. The AUC(0-t) (oral, 24 mg, Day 14, plasma) was 5720 ng·h/mL, the Tmax (oral, 24 mg, Day 14, plasma, read-out: Tmax median (range)) was 2 h and the Cmax (oral, 48 mg, Day 1, plasma) was 964 ng/mL. The AUC(0-t) (oral, 48 mg, Day 1, plasma) was 5310 ng·h/mL, the Tmax (oral, 48 mg, Day 1, plasma, read-out: Tmax median) was 4 h and the Cmax (oral, 48 mg, Day 14, plasma) was 1110 ng/mL. For the same compound, the AUC(0-t) (oral, 48 mg, Day 14, plasma) was 7910 ng·h/mL, the Tmax (oral, 48 mg, Day 14, plasma, read-out: Tmax median (range)) was 2 h and the Cmax (oral, 96 mg, Day 1, plasma) was 1360 ng/mL. The AUC(0-t) (oral, 96 mg, Day 1, plasma) was 10200 ng·h/mL, the Tmax (oral, 96 mg, Day 1, plasma, read-out: Tmax median) was 4 h and the Cmax (oral, 96 mg, Day 14, plasma) was 2800 ng/mL. For the same compound, the AUC(0-t) (oral, 96 mg, Day 14, plasma) was 17100 ng·h/mL, the Tmax (oral, 96 mg, Day 14, plasma, read-out: Tmax median (range)) was 2 h and the Cmax (oral, 192 mg, Day 1, plasma) was 1530 ng/mL. For the same compound, the AUC(0-t) (oral, 192 mg, Day 1, plasma) was 18600 ng·h/mL, the Tmax (oral, 192 mg, Day 1, plasma, read-out: Tmax median) was 2 h and the Cmax (oral, 192 mg, Day 14, plasma) was 3230 ng/mL. It also gave an AUC(0-t) (oral, 192 mg, Day 14, plasma) of 33800 ng·h/mL, a Tmax (oral, 192 mg, Day 14, plasma, read-out: Tmax median (range)) of 1 h and a Cmax (oral, 384 mg, Day 1, plasma) of 3020 ng/mL. The AUC(0-t) (oral, 384 mg, Day 1, plasma) was 29900 ng·h/mL, the Tmax (oral, 384 mg, Day 1, plasma, read-out: Tmax median) was 4.1 h and the Cmax (oral, 384 mg, Day 14, plasma) was 4510 ng/mL. It also gave an AUC(0-t) (oral, 384 mg, Day 14, plasma) of 43500 ng·h/mL and a Tmax (oral, 384 mg, Day 14, plasma, read-out: Tmax median (range)) of 1 h.

— patent publication US20250275953A1, “VODOBATINIB FOR REDUCING PROGRESSION OF PARKINSON'S DISEASE” (Sun Pharma Advanced Research Company Ltd., priority 2022, published 2025)
